Measurements: patent publication US20030096015A1, “Cytogenic/nucleogenic healing” (priority 1997, published 2003)

System: multiple of infections (MOI)

## OC[C@H]1O[C@@](CO)(O[C@H]2O[C@H](CO)[C@@H](O)[C@H](O)[C@H]2O)[C@@H](O)[C@@H]1O [5% Sucrose, sucrose]
Medium streaked with mixed MOI culture
  bacterial and viral growth / resistance to proteolysis by MOI: bacterial activity and viral replication at exponential rate
Resistance to proteolysis by MOI, ambient temperature (24° C.)
  Comparative Degree of Resistance: 5.0 h
Resistance to proteolysis by MOI, ambient temperature (24° C.), 5% Sucrose = 1.0
  Relative Resistance: 1.0
